Where only a bound is given, the exact number is not on record here.

In general, IC50 refers to the point on the concentration scale where inhibition reaches its midpoint. Lower therefore signals greater potency. Usually Kd stands for the constant that tells how readily two partners part at equilibrium. Read a low Kd as a tighter complex.

In test [1] the target is T1, α-synuclein (Homo sapiens (Human), UniProt P37840). Nature of the test: PBB5 competition assay. In kind it is binding. Particulars: 2 μM α-synuclein, 0.26 μM PBB5, 37° C., 1 hour. As for the experimental part:
(§1) (A) Expression and purification of recombinant wild-type human α-synuclein: 0.5 mM IPTG was used to induce production of wild type human α-synuclein by bacteria transformed with a full-length α-synuclein expression plasmid. After shaking at 16° C. for 20 hours, cell pellet was resuspended in lysis buffer (10 mM Tris, 1 mM EGTA, 0.75 mM NaCl, 1 mM PMSF, pH 7.5) and lysed by sonication followed by centrifugation (6000 g, 30 min, 4° C.). The supernatant was then boiled at 95° C. for 15 min with manual agitation by every 5 minutes, followed by centrifugation (6000 g, 30 min, 4° C.). Supernatant was dialyzed with (10 mM Tris, 1 mM EGTA, 50 mM NaCl, pH 7.5) buffer and concentrated with concentrator. The collected sample was loaded onto a Superdex200 column, the flow-through fraction was then loaded onto a Q-HP column. Collected fractions with α-synuclein eluates were pooled, concentrated and stored at −80° C.
(§2) (B) Preparation of aggregated α-synuclein: 5 mg/mL of α-synuclein in PBS buffer (pH 7.4) was incubated in tube with at 37° C. with shaking (700 rpm) for 5-10 days.
(D) PBB5 competition assay: 2 μM of α-synuclein was incubated with 0.26 μM 2-(4-(2-(methylamino)pyridine-5-yl)-1,3-butadiene-1-yl)benzothiazole-6-ol (PBB5) and serially diluted compound (three-fold serial dilution, from 10 to 0.001 μM) in a 96-well plate at 37° C. for 1 hour. Fluorescence intensity (excitation/emission=530/690 nm) of PBB5 was read by microplate spectrometer. Percentage of competition was calculated using the following equation: (Max−well of compound alone)/(Max−Min)*100%, where Max=(α-synuclein+PBB5) signals−(buffer+PBB5) signals; and Min=(buffer+PBB5) signals−(buffer+PBB5) signals. The IC50 value of each compound was calculated with GraphPad Prism software using the “4 Parameter Logistic Model or Sigmoidal Dose-Response Model”: Y=Bottom+(Top−Bottom)/(1+(IC50/X)^HillSlope)

Test [2] addresses T1, α-synuclein. Nature of the test: In vitro fluorometric α-synuclein binding assay. The note with it: 2 μM α-synuclein, 37° C., 1 hour, fluorescence. As for the experimental part:
as §1, §2
(C) In vitro fluorometric α-synuclein binding assays: 2 μM α-synuclein was incubated with serially diluted compound (three-fold serial dilutions, from 10 to 0.001 μM) in a 96-well plate at 37° C. for 1 hour. Fluorescence intensity was read by microplate spectrometer. Compound Kd values were calculated using the following equation: Y=Bmax*X/(Kd+X), where X is the concentration of compound; Y is the fluorescence signal of (compound+α-synuclein)−(compound+DMSO); and Bmax is the maximum signal.

In another test the target is α-synuclein aggregates (Homo sapiens (Human), UniProt P37840). Nature of the test: ReNcell VM α-synuclein aggregation assay. Particulars: for DC50: ReNcell VM cells, read-out: Activity (DC50, concentration at which 50% of α-synuclein aggregates has been degraded). In kind it is cell-based. As for the experimental part: The ReNcell VM α-synuclein aggregation assay was conducted at Charles River Laboratories (CRL). ReNcell VM is an immortalized human neural progenitor cell line derived from the ventral mesencephalon region of the brain. ReNcell VM cells were selected as in vitro cellular model for the α-synuclein aggregation assay, based on their growth features, differentiation potential into terminally differentiated neurons and amenability to adenoviral transduction. Aggregated human wild type α-synuclein was overexpressed through adenoviral delivery. Aggregated α-synuclein was detected with the aggregate-selective anti-α-synuclein antibody MJFR14 using immunocytochemistry; total α-synuclein levels were detected with Syn205 (α/β-synuclein-specific antibody).
The ReNcell VM α-synuclein aggregation assay was applied for compound screening to identify compounds capable of degrading α-synuclein aggregates. […] Immunoreactivity toward aggregated (MJFR14) and total α-synuclein (Syn205) was quantified using high content-based segmentation of immunoactive areas in immunocytochemical images (performed with the IN Cell 2200 (GE Healthcare)), followed by quantification of immunofluorescent intensity (performed by CRL's developed algorithm using IN Cell Developer Toolbox software).
Percentage effect (PE): Inhibition in comparison to BLANK (0.1% DMSO).
PE=100−(signal of compound/average signal BLANK)×100
Compound-induced cytotoxicity (% remaining cells)
% remaining cells=(nuclei count of compound/average nuclei count of BLANK)×100

Where [3] appears, read: 24 hour treatment, differentiated ReNcell VM cells.

Regarding `O=C1CCC(N2Cc3cc(OCCCCCNc4cc(-c5ccc(-c6nc7ccc(F)cc7s6)cc5)ccn4)ccc3C2=O)C(=O)N1` (centres unmarked) [Compound 165825], the IC50 on α-synuclein [1] is more than 10 µM.
`COc1ccc2nc(-c3ccc(-c4ccnc(NCCOCCOc5ccc6c(c5)CN(C5CCC(=O)NC5=O)C6=O)c4)cc3)oc2c1` (centres unmarked) [Compound 166123] displayed a Kd at α-synuclein [2] of 0.48 µM. The compound also displayed an IC50 on α-synuclein [1] of 0.41 µM.
`CN(C)c1ccc(-c2ccc(-c3nc4ccc(NCCCOCCCOc5ccc6c(c5)CN(C5CCC(=O)NC5=O)C6=O)cc4s3)c(C(F)(F)F)c2)cn1` (centres unmarked) [Compound 123374]: the DC50 on α-synuclein aggregates was more than 10 µM.
Take `CN(C)c1ccc(-c2ccc(-c3nc4ccc(OCCCOc5ccc6c(c5)CN(C5CCC(=O)NC5=O)C6=O)cc4s3)cc2)cn1` (centres unmarked) [Compound 184605]: the DC50 at α-synuclein aggregates is more than 10 µM.
As for `CN1C(=O)CCC(N2Cc3cc(OCCOCCNc4ccc5nc(-c6ccc(-c7ccc(N(C)C)nc7)cc6C(F)(F)F)sc5c4)ccc3C2=O)C1=O` (centres unmarked) [Compound 133065], on α-synuclein aggregates, the DC50 is more than 10 µM.
Regarding `CN(C)c1ccc(-c2ccc(-c3nc4ccc(NCCCCCOc5ccc6c(c5)C(=O)N(C5CCC(=O)NC5=O)C6=O)cc4s3)cc2)cn1` (centres unmarked) [Compound 161103, 2-[2,6-bis(oxo)piperidin-3-yl]-5-[5-[[2-[4-[6-(dimethylamino)-pyridin-3-yl]phenyl]-1,3-benzothiazol-6-yl]amino]pentoxy]isoindole-1,3-dione], the DC50 at α-synuclein aggregates is more than 10 µM.
`O=C1CCC(N2C(=O)c3ccc(OCCOCCNc4ccc(-c5ccc(-c6cc7ccncc7[nH]6)cc5)cn4)cc3C2=O)C(=O)N1` (centres unmarked) [Compound 170354]: the DC50 on α-synuclein aggregates was in the range of 0.01 to 0.9 µM.
Consider `CN(C)c1ccc(-c2ccc(-c3nc4ccc(OC(=O)CCOCCOc5ccc6c(c5)CN(C5CCC(=O)NC5=O)C6=O)cc4s3)cc2)cn1` (centres unmarked) [Compound 175552], for which the DC50 on α-synuclein aggregates is more than 10 µM.
As to `CN(C)c1ccc(-c2ccc(-c3nc4ccc(OCCOCCOc5cccc6c5CN(C5CCC(=O)NC5=O)C6=O)cc4s3)c(C(F)(F)F)c2)cn1` (centres unmarked) [Compound 180950], the DC50 at α-synuclein aggregates is more than 10 µM.
Same read-out and setting: with `COc1ccc2nc(-c3ccc(-c4ccnc(NCCOCCOCC(=O)NC(C(=O)N5C[C@H](O)C[C@H]5C(=O)NCc5ccc(-c6scnc6C)cc5)C(C)(C)C)c4)cc3)cn2c1` (some centres unmarked) [Compound 177685] the figure was more than 10 µM; with `CN(C)c1ccc(-c2ccc(-c3nc4ccc(OCCCCC(=O)Nc5cccc6c5CN(C5CCC(=O)NC5=O)C6=O)cc4s3)cc2)cn1` (centres unmarked) [Compound 189149], more than 10 µM.
As to `CN(C)c1ccc(-c2ccc(-c3nc4ccc(NCCOCCNc5cccc6c5C(=O)N(C5CCC(=O)NC5=O)C6=O)cc4s3)cc2)cn1` (centres unmarked) [Compound 170356], the DC50 on α-synuclein aggregates is more than 10 µM.
As to `CN(C)c1ccc2nc(-c3ccc(-c4ccc(NCCOCCOc5ccc6c(c5)CN(C5CCC(=O)NC5=O)C6=O)nc4)cc3C(F)(F)F)sc2c1` (centres unmarked) [Compound 177031], the DC50 on α-synuclein aggregates is more than 10 µM.
For the compound `COc1ccc2nc(-c3ccc(-c4ccnc(NC(=O)CCCCOc5ccc6c(c5)CN(C5CCC(=O)NC5=O)C6=O)c4)cc3)cn2c1` (centres unmarked) [Compound 130177], on α-synuclein aggregates, the DC50 was more than 10 µM.
As for `CN(C)c1ccc(-c2ccc(-c3cn4cc(OCCOCCOc5ccc6c(c5)CN(C5CCC(=O)NC5=O)C6=O)ccc4n3)cc2)c(F)n1` (centres unmarked) [Compound 170450], the DC50 at α-synuclein aggregates was more than 10 µM.
For `CN(C)c1ccc(-c2ccc(-c3nc4ccc(NCCCNC(=O)COc5ccc6c(c5)CN(C5CCC(=O)NC5=O)C6=O)cc4s3)c(C(F)(F)F)c2)cn1` (centres unmarked) [Compound 166362], the “inhibition of MJFR14 immunoreactivity” value was “clear inhibition” on α-synuclein aggregates (6-day treatment, immunocytochemical images) and “concentration-dependent inhibition” on α-synuclein aggregates (setting [3]). The DC50 on α-synuclein aggregates lay within 0.9 to 10 µM.
Consider `COc1cc(-c2ccc(N(C)C)nc2)ccc1-c1nc2ccc(NCCOCCOc3ccc4c(c3)CN(C3CCC(=O)NC3=O)C4=O)cc2s1` (centres unmarked) [Compound 129071], for which the DC50 on α-synuclein aggregates is more than 10 µM.
The same measure, in the same setting: then `O=C1CCC(N2Cc3cc(OCCCC(=O)Nc4cc(-c5ccc(-c6nc7ccc(F)cc7s6)cc5)ccn4)ccc3C2=O)C(=O)N1` (centres unmarked) [Compound 133678], with more than 10 µM.
Same read-out and setting: then `CN(C)c1ccc(-c2ccc(-c3nc4ccc(NCCOCCOc5cccc6c5CN(C5CCC(=O)NC5=O)C6=O)cc4s3)c(C(F)(F)F)c2)cn1` (centres unmarked) [Compound 185563], with more than 10 µM.
Turning to `Cc1ncsc1-c1ccc(CNC(=O)[C@@H]2C[C@@H](O)CN2C(=O)C(NC(=O)COCCOCCNc2cc(-c3ccc(-c4nc5ccc(F)cc5s4)cc3)ccn2)C(C)(C)C)cc1` (some centres unmarked) [Compound 165810], on α-synuclein aggregates, the DC50 is more than 10 µM.
Still for that read-out and setting: with `CN(C)c1ccc(-c2ccc(-c3cn4cc(OCCCCCOc5ccc6c(c5)CN(C5CCC(=O)NC5=O)C6=O)ccc4n3)cc2)c(F)n1` (centres unmarked) [Compound 170451] the figure was more than 10 µM.
On α-synuclein [2], `CN(C)c1ccc(-c2ccc(-c3nc4ccc(OCCOCCOc5cccc6c5C(=O)N(C5CCC(=O)NC5=O)C6=O)cc4s3)cc2)cn1` (centres unmarked) [Compound 180944] showed a Kd of 0.43 µM. The IC50 on α-synuclein [1] came out at 0.61 µM.
For the compound `Cc1ncsc1-c1ccc(CNC(=O)[C@@H]2C[C@@H](O)CN2C(=O)[C@@H](NC(=O)COCCOCCOc2ccc3nc(-c4ccc(-c5ccc(N(C)C)nc5)cc4C(F)(F)F)sc3c2)C(C)(C)C)cc1` [Compound 165554], the DC50 on α-synuclein aggregates is more than 10 µM.
As for `CN(C)c1ccc2nc(-c3ccc(-c4ccc(NCCOCCOc5ccc6c(c5)C(=O)N(C5CCC(=O)NC5=O)C6=O)nc4)cc3)sc2c1` (centres unmarked) [Compound 161177, 2-[2,6-bis(oxo)piperidin-3-yl]-5-[2-[2-[[5-[4-[6-(dimethylamino)-1,3-benzothiazol-2-yl]phenyl]pyridin-2-yl]amino]ethoxy]ethoxy]isoindole-1,3-dione], the DC50 on α-synuclein aggregates is more than 10 µM.
The same measure, in the same setting: then `CN(C)c1ccc2nc(-c3ccc(-c4ccnc(NCCOCCOc5ccc6c(c5)CN(C5CCC(=O)NC5=O)C6=O)c4)cc3)sc2c1` (centres unmarked) [Compound 165950], with more than 10 µM.
With `COc1ccc2nc(-c3ccc(-c4ccnc(NCCOCCOc5ccc6c(c5)CN(C5CCC(=O)NC5=O)C6=O)c4)cc3)cn2c1` (centres unmarked) [Compound 162640, 3-[6-[2-[2-[[4-[4-(6-methoxyimidazo[1,2-a]pyridin-2-yl)phenyl]pyridin-2-yl]amino]ethoxy]ethoxy]-3-oxidanylidene-1H-isoindol-2-yl]piperidine-2,6-dione], the “inhibition of MJFR14 immunoreactivity” value against α-synuclein aggregates (setting [3]) is recorded as “concentration-dependent inhibition”. For the same compound, the DC50 on α-synuclein aggregates lay in the range of 0.01 to 0.9 µM.
In the case of `O=C1CCC(N2Cc3cc(OCCOCCNc4cc(-c5ccc(-c6nc7ccc(F)cc7s6)c(C(F)(F)F)c5)ccn4)ccc3C2=O)C(=O)N1` (centres unmarked) [Compound 166965], the affinity at α-synuclein [2], expressed as Kd, was 0.22 µM. The compound also displayed an IC50 at α-synuclein [1] of 10 µM.
In the case of `CN1C(=O)CCC(N2Cc3cc(OCCOCCOc4ccc5nc(-c6ccc(-c7ccc(N(C)C)nc7)cc6)sc5c4)ccc3C2=O)C1=O` (centres unmarked) [Compound 177036], at α-synuclein aggregates, the DC50 was more than 10 µM.
As to `O=C1CCC(N2Cc3cc(OCCOCCNc4ccc(-c5ccc(-c6cc7ccncc7[nH]6)cc5)cn4)ccc3C2=O)C(=O)N1` (centres unmarked) [Compound 165954], the DC50 at α-synuclein aggregates is more than 10 µM.
`O=C1CCC(N2Cc3cc(OCCOCCOc4ccc5nc(-c6ccc(-c7ccc(NC8CC8)nc7)cc6)sc5c4)ccc3C2=O)C(=O)N1` (centres unmarked) [Compound 177032]: the Kd at α-synuclein [2] came out at 0.06 µM. Moreover, the DC50 at α-synuclein aggregates is more than 10 µM.
As for `COc1ccc2nc(-c3ccc(-c4ccc(NCCOCCOc5cccc6c5C(=O)N(C5CCC(=O)NC5=O)C6=O)nc4)cc3)sc2c1` (centres unmarked) [Compound 177038], at α-synuclein aggregates, the DC50 was more than 10 µM.

The values above are taken from patent US12377152B2, “Compounds for degrading alpha-synuclein aggregates and uses thereof” (APRINOIA THERAPEUTICS LIMITED, priority 2019, dated 2025).
